Source: patent publication US20040044060A1, “Fungicidal mixture” (priority 2001, published 2004)

Test system: Plasmopara viticola
Assay: Protective activity against peronospora of vines caused by Plasmopara viticola (potted vines, spray treatment)
Assay type: in vivo
Conditions: individual active compound, vine leaves cv. Müller-Thurgau, untreated 75% infection
Protocol: The active compounds, separately or jointly, were formulated as a 10% emulsion in a mixture of 63% by weight of cyclohexanone and 27% by weight of emulsifier, and diluted with water to the desired concentration.
Evaluation was carried out by determining the infected leaf areas in percent. These percentages were converted into efficacies. The efficacy (W) was calculated as follows using Abbot's formula: […]
α corresponds to the fungal infection of the treated plants in % and β corresponds to the fungal infection of the untreated (control) plants in % An efficacy of 0 means that the infection level of the treated plants corresponds to that of the untreated control plants; an efficacy of 100 means that the treated plants were not infected.
The expected efficacies of the mixtures of the active compounds were determined using Colby's formula [R. S. Colby, Weeds 15, 20-22 (1967)] and compared with the observed efficacies.
E=x+y−x·y/100 Colby's formula: […]
E expected efficacy, expressed in % of the untreated control, when using the mixture of the active compounds A and B at the concentrations a and b x efficacy, expressed in % of the untreated control, when using active compound A at a concentration of a y efficacy, expressed in % of the untreated control, when using active compound B at a concentration of b.
Protective Activity Against peronospora vines Caused by Plasmopara viticola Leaves of potted vines of the cultivar “Müller-Thurgau” were sprayed to runoff point with an aqueous preparation of active compound which had been prepared from a stock solution comprising 10% of active compound, 85% of cyclohexanone and 5% of emulsifier. The next day, the undersides of the leaves were inoculated with an aqueous zoospore suspension of Plasmopara viticola. The vines were then initially placed in a water-vapor-saturated chamber at 24° C. for 48 hours and then in a greenhouse at 20-30° C. for 5 days. […] The extent to which the infection had developed on the undersides of the leaves was then determined visually.

## Cc1ccc(-c2c(Cl)nc(C#N)n2S(=O)(=O)N(C)C)cc1 [Ia, cyazofamid]
0.05 ppm in the spray liquor
  Efficacy in % of the untreated control: 47%
0.1 ppm in the spray liquor
  Efficacy in % of the untreated control: 73%
0.2 ppm in the spray liquor
  Efficacy in % of the untreated control: 87%
